Data from US20090203685A1, “ANTI-PROLIFERATIVE COMPOUNDS FROM A 3-ARYL-COUMARINE OR 3-ARYL-QUINOLIN-2-ONE AND USES THEREOF” (EOS (ETHICAL ONCOLOGY SCIENCE) S.P.A., priority 2006, published 2009).
Values joined by “and” are separate entries in the source; they are usually repeats but may differ in a detail not shown here. Identical values can stand only once. Counter-ions that a name gives are not always drawn.

Columns and labels:
U937 cells = test: Proliferation test ViaLight HS, U937 cells (Example 8); assay type: cell-based, human; settings: 72 h incubation, range = multiple experiments, otherwise individual experiments
Experimental: 2C Proliferation test ViaLight® HS High Sensitivity Cytotoxicity and Cell Proliferation BioAssay Kit
This protocol allows the determination of the cytostatic and cytotoxic activities of compounds to be tested on mammalian cells in culture and was carried out essentially according to the manufacturer's recommendations.
Cells are suspended in 15 mL of their respective media and are enumerated. They are then diluted in their media in order to obtain: • 2500 cells per 90 μL per well for MRC5 cells • 5000 cells per 90 μL per well for all other cell lines. Cells are then seeded in a 96 well plate, and incubated at least 4 hours in the incubator at 37° C. in 5% CO2.
The molecules to be tested are diluted in DMEM with DMSO in order to obtain the following dilutions: • dilution at 250 μM/1% DMSO • dilution at 50 μM/1% DMSO • dilution at […] • dilution at 2 μM/1% DMSO • dilution at 400 nM/1% DMSO • dilution at 80 nM/1% DMSO For each well comprising 90 μL of cell suspension, 10 μL of a solution of the compound to be tested is added, with the 6 different concentrations. The plate is then incubated during 72 hours. One control plate is contacted with 10 μL of DMEM 1% DMSO, without compound to be tested. 50 μL of lysis buffer (test Vialight® lysis buffer) is added in each well of the control plate and the plate is incubated 10 minutes under hood.
Then, 100 μL of test buffer (test Vialight® test buffer) is added in each well and the control plate is incubated during 2 minutes. The luminescence is read in each well. The mean luminescence for each type of cells is called T0.
After the 72 h incubation, in order to determine the viability, 50 μL of lysis buffer (test Vialight® lysis buffer) is added in each well of the plates and the plates are incubated 10 minutes under hood.
Then, 100 μL of test buffer (test Vialight® test buffer) is added in each well and the plates are incubated during 2 minutes. The luminescence is read in each well. For each type of cell, the mean luminescence in the well not containing the compound is called C72 and the mean luminescence in well containing a given concentration of a compound to be tested is called T72. For each dilution (concentration of compound to be tested), T0 and T72 values are compared.
The graph is plotted for the different concentrations of compound and • GI50 (50% of growth inhibitory) is determined, this is the dose producing 50% of cell growth (intersection at Y=50); • TGI (total growth inhibitory) is determined on the graph, this is the dose producing the total arrest of the cell growth (intersection at Y=0); and • LC50 (50% of lethal concentration) is determined, this is the dose producing the death of 50% of the cells (intersection at Y=−50).
Following the protocol described in Example 2C, different compounds according to the invention have been tested for their cytostatic and cytotoxic activities on mammalian cells in culture (specifically U937 cells).
The GI50 (50% of growth inhibitory) has been determined for all the following compounds, i.e. the dose producing 50% of cell growth inhibition.
Where the GI50 provided is in the form of a range, it means that multiple experiments, whose results fall within the range indicated, were performed. Otherwise, results of individual experiments are provided.

[1] = in vivo; cited from earlier work
[2] = system: melanoma, breast, cervical, prostate, colon tumor cells; settings: cited from earlier work
[3] = target: T1, interaction between 6×His-Bcl-xL and GST-BF8 (Homo sapiens, UniProt Q07817); test: Pull down assay, Bcl-xL/BF8 in vitro interaction; assay type: binding; settings: 50 μM, 5% DMSO; Western blot
T1 construct: made in house; host or cells: E. coli
T1 sequence (Q07817 whole entry): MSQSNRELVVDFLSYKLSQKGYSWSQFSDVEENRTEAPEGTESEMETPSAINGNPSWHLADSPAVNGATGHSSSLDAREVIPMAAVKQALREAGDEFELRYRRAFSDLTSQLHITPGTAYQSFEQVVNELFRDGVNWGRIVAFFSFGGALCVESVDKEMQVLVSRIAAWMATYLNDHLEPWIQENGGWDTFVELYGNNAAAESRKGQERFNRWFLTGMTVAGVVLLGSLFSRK
Experimental: FIG. 3: Inhibition of the interaction between Bcl-xL and BF8, a peptide aptamer that targets the hydrophobic groove of BCL-2 family members. […]
C+: 6×His-Bcl-xL captured by GST-BF8, in presence of 5% DMSO. (02): 6×His-Bcl-xL captured by GST-BF8, in presence of 50 μM of compound 02 (in 5% DMSO). (01): 6×His-Bcl-xL captured by GST-BF8, in presence of 50 μM of compound 01 (in 5% DMSO).
A peptide aptamer (dubbed BF8) has been selected against the anti-apoptotic protein Bfl1, member of the BCL-2 family. […] Two lines of evidence indicate that BF8 binds the hydrophobic groove of anti-apoptotic BCL-2-like proteins. First, the amino-acid sequence of its variable region bears similarities with the sequence of the BH3 domains of pro-apoptotic members of the BCL-2 family (such as Bak or Bax), known to bind the anti-apoptotic proteins via this hydrophobic groove. Second, BF8 no longer binds a mutated variant of Bfl-1 that bears an amino-acid substitution within the said hydrophobic groove.
A Bcl-xL/BF8 in vitro interaction assay was developed to examine the capacity of the compounds of the invention to disrupt this interaction by competition with the peptide aptamer. 6×His-Bcl-xL and GST-BF8 recombinant fusion proteins were expressed in E. coli and purified using affinity chromatography. […]

GI50 (U937 cells; Homo sapiens, U-937, 72 h) [nM]	Compound	further results
33	COc1cc(/N=C(\SC)N(C)C(=O)/C=C/c2ccco2)ccc1-c1cc2ccccc2oc1=O [Compound 24, 1-((E)-3-furan-2-yl-acryloyl)-3-[3-methoxy-4-(2-oxo-2H-chromen-3-yl)-phenyl]-1,2-dimethyl-isothiourea]	
45	COc1cc(NC(=S)NC(=O)/C=C/c2ccco2)ccc1-c1cc2ccccc2n(C)c1=O [Compound 17, (2E)-3-(2-furyl)-N-({[3-methoxy-4-(1-methyl-2-oxo-1,2-dihydroquinolin-3-yl)phenyl]amino}carbonothioyl)acrylamide]	
410	COc1cc(/N=C(\SC)N(C)C(=O)c2ccc(F)cc2)ccc1-c1cc2ccccc2oc1=O [Compound 25, 1-(4-fluoro-benzoyl)-3-[3-methoxy-4-(2-oxo-2H-chromen-3-yl)-phenyl]-1,2-dimethyl-isothiourea]	
~90	COc1cc(NC(=S)NC(=O)/C=C/c2ccco2)ccc1-c1cc2ccccc2n(CCO)c1=O [Compound 21, 1-((E)-3-furan-2-yl-acryloyl)-3-{4-[1-(2-hydroxy-ethyl)-2-oxo-1,2-dihydro-quinolin-3-yl]-3-methoxy-phenyl}-thiourea]	
220	COc1cc(/N=C(/NC(=O)/C=C/c2ccco2)SC)ccc1-c1cc2ccccc2oc1=O [Compound 14, methyl N-[(2E)-3-(2-furyl)prop-2-enoyl]-Ar-[3-methoxy-4-(2-oxo-2H-chromen-3-yl)phenyl]imidothiocarbamate]	
1600 to 2100	COc1cc(NC(=N)NC(=O)/C=C/c2ccco2)ccc1-c1cc2ccccc2oc1=O [Compound 12, (2E)-3-(2-furyl)-N-(imino{[3-methoxy-4-(2-oxo-2H-chromen-3-yl)phenyl]amino}methyl)acrylamide]	
9200	COc1cc(N(C)C(=N)NC(=O)/C=C/c2ccco2)ccc1-c1cc2ccccc2oc1=O [Compound 19, N′-((E)-3-furan-2-yl-acryloyl)-N-[3-methoxy-4-(2-oxo-2H-chromen-3-yl)-phenyl]-N-methyl-guanidine]	
630	COc1cc(NC(=N)NC(=O)c2ccccc2)ccc1-c1cc2ccccc2oc1=O [Compound 07, N-(imino{[3-methoxy-4-(2-oxo-2H-chromen-3-yl)phenyl]amino}methyl)benzamide]	GI50 (U937 cells): 800 nM

More lines, now with the values behind:

Compound	GI50 (U937 cells; Homo sapiens, U-937, 72 h) [nM]	further results
COc1cc(NS(=O)(=O)c2cc(C)oc2C)ccc1-c1cc2ccccc2oc1=O [Compound 13, N-[3-methoxy-4-(2-oxo-2H-chromen-3-yl)phenyl]-2,5-dimethylfuran-3-sulfonamide]	100	
COc1cc(NC(=O)Nc2cccc(N(C)C)c2)ccc1-c1cc2ccccc2oc1=O [Compound 18, 1-(3-dimethylamino-phenyl)-3-[3-methoxy-4-(2-oxo-2H-chromen-3-yl)-phenyl]-urea.HCl]	150	
COC1=CC(c2cc3ccccc3[nH]2)=N/C1=C\c1[nH]c(C)cc1C [GX15-070]		MTD (maximal tolerated dose) [1]: approx 16 mg/kg; Growth of melanoma, breast, cervical, prostate, colon tumor cells [2]: inhibit growth
COc1cc(NC(=S)Nc2ccc(N3CCOCC3)nc2)ccc1-c1cc2ccccc2oc1=O [Compound 08, 1-[3-methoxy-4-(2-oxo-2H-chromen-3-yl)-phenyl]-3-(6-morpholin-4-yl-pyridin-3-yl)-thiourea]	1200	
COc1cc(NC(=S)Nc2ccc(N3CCOCC3)cc2)ccc1-c1cc2ccccc2oc1=O [Compound 20, 1-[3-methoxy-4-(2-oxo-2H-chromen-3-yl)-phenyl]-3-(4-morpholin-4-yl-phenyl)-thiourea]	1100	
COc1cc(N(C(C)=O)S(=O)(=O)c2cc(C)oc2C)ccc1-c1cc2ccccc2oc1=O [Compound 23, 2,5-dimethyl-furan-3-sulfonic acid acetyl-[3-methoxy-4-(2-oxo-2H-chromen-3-yl)-phenyl]-amide]	~500	
COc1cc(NC(=S)NC(=O)c2ccc(F)cc2)ccc1-c1cc2ccccc2oc1=O [Compound 05, 4-fluoro-N-({[3-methoxy-4-(2-oxo-2H-chromen-3-yl)phenyl]amino}carbonothioyl)benzamide]	920	GI50 (U937 cells): 1500 nM
COc1cc(NC(=O)Nc2ccccc2)ccc1-c1cc2ccccc2oc1=O [Compound 03, 1-[3-methoxy-4-(2-oxo-2H-chromen-3-yl)-phenyl]-3-phenyl-urea]	610	
COc1cc(NC(=N)NC(=O)c2ccccc2)ccc1-c1cc2ccccc2[nH]c1=O [Compound 22, N-Benzoyl-N′-[3-methoxy-4-(2-oxo-1,2-dihydro-quinolin-3-yl)-phenyl]-guanidine]	1000	
COC(=O)c1ccc(S(=O)(=O)Nc2ccc(-c3cc4ccccc4oc3=O)c(OC)c2)n1C [Compound 09, methyl 5-({[3-methoxy-4-(2-oxo-2H-chromen-3-yl)phenyl]amino}sulfonyl)-1-methyl-1H-pyrrole-2-carboxylate]	500 to 600	
COc1cc(NC(=S)NC(=O)c2ccccc2)ccc1-c1cc2ccccc2oc1=O [Compound 02, N-({[3-methoxy-4-(2-oxo-2H-chromen-3-yl)phenyl]amino}carbonothioyl)benzamide]	600 to 860	Inhibition of the in vitro interaction between 6×His-Bcl-xL and GST-BF8 [3]: inhibit
COc1cc(NC(=O)Nc2ccc(N(C)C)cc2)ccc1-c1cc2ccccc2oc1=O [Compound 06, 1-(4-dimethylamino-phenyl)-3-[3-methoxy-4-(2-oxo-2H-chromen-3-yl)-phenyl]-urea.HCl]	320	GI50 (U937 cells): 580 nM
COc1cc(NC(=S)NC(=O)/C=C/c2ccco2)ccc1-c1cc2ccccc2[nH]c1=O [Compound 15, (2E)-3-(2-furyl)-N-({[3-methoxy-4-(2-oxo-1,2-dihydroquinolin-3-yl)phenyl]amino}carbonothioyl)acrylamide]		GI50 (U937 cells): 63 nM and 210 nM
